We go through 30 compounds from US8895585B2, “Nicotinamide derivative or salt thereof” (FUJIFILM Corporation, priority 2010, dated 2014).

pIC50: −log10 of the molar value. Where only a bound is given, the exact number is not on record here.

The subject of one test is THP-1 cells. Briefly: TNFα generation assay. Type of test: cell-based, human. To be noted: Homo sapiens, THP-1, 7 h, IFN-γ-differentiated THP-1 cells on human IgG-coated plate, cultured 7 hours; read-out: TNFα generation inhibitory activity (IC50). How it is done: THP-1 cells (2×10^5 cells/ml), which were human monocytoid cells, were cultured in the presence of 10 ng/ml IFN-γ (Roche) for 2 days, so that the cells were induced to differentiate into macrophage-like cells. The differentiation-induced THP-1 cells were recovered, and the cells (1×10^6 cell/ml) were then allowed to react with a predetermined concentration of test compound at room temperature for 30 minutes. On the other hand, 100 μl of human IgG (10 μg/ml, SIGMA-ALDRICH) diluted with PBS was added to a 96-well plate, and it was then incubated at room temperature overnight. Thereafter, the resultant was washed with PBS twice to produce a human IgG-coated plate. Subsequently, a cell solution that contained a compound was inoculated on the human IgG-coated plate (5×10^4 cells/well), and it was then cultured for 7 hours. Thereafter, the cultured solution was recovered, and the amount of TNFα secreted into the culture solution was then measured by the ELISA method (Roche/R & D Systems) or the AlphaLISA method (PerkinElmer).
As for `NC(=O)c1cc(F)c(N[C@@H]2CCCC[C@@H]2N)nc1Nc1ccc(N2CCOCC2)nc1` (relative stereo) [Example 2-20, 6-(cis-2-aminocyclohexylamino)-5-fluoro-2-((6-(morpholin-4-yl)pyridin-3-yl)amino)nicotinamide], the pIC50 is no less than 6.70.
As for `NC(=O)c1cc(F)c(N[C@@H]2CCCC[C@@H]2N)nc1Nc1cnc2c(ccn2CCN2CCCC2)c1` (relative stereo) [Example 4-22, 6-(cis-2-aminocyclohexylamino)-5-fluoro-2-((1-(2-(pyrrolidin-1-yl)ethyl)-1H-pyrrolo[2,3-b]pyridin-5-yl)amino)nicotinamide], the pIC50 is no less than 6.70.
`NC(=O)c1cc(F)c(N[C@@H]2CCCC[C@@H]2N)nc1Nc1ccnc2c1ccn2CCN1CCCC1` (relative stereo) [Example 4-23, 6-(cis-2-aminocyclohexylamino)-5-fluoro-2-((1-(2-(pyrrolidin-1-yl)ethyl)-1H-pyrrolo[2,3-b]pyridin-4-yl)amino)nicotinamide]: the pIC50 is no less than 6.70.
On the same count and under the same terms, the value for `NC(=O)c1cc(F)c(N[C@@H]2CCCC[C@@H]2N)nc1Nc1ccnc2c1ccn2CCN1CCOCC1` (relative stereo) [Example 4-25, 6-(cis-2-aminocyclohexylamino)-5-fluoro-2-((1-(2-(morpholin-4-yl)ethyl)-1H-pyrrolo[2,3-b]pyridin-4-yl)amino)nicotinamide] was no less than 6.70.
The same measure, in the same setting: the value for `NC(=O)c1cc(F)c(N[C@@H]2CCCC[C@@H]2N)nc1Nc1cnc2ncsc2c1` (relative stereo) [Example 4-26, 6-(cis-2-aminocyclohexylamino)-5-fluoro-2-(([1,3]thiazolo[4,5-b]pyridin-6-yl)amino)nicotinamide] was no less than 6.70; that for `CCN(CC)CCn1ccc2c(Nc3nc(N[C@@H]4CCCC[C@@H]4N)c(F)cc3C(N)=O)ccnc21` (relative stereo) [Example 4-28, 6-(cis-2-aminocyclohexylamino)-2-((1-(2-(diethylamino)ethyl)-1H-pyrrolo[2,3-b]pyridin-4-yl)amino)-5-fluoronicotinamide] was no less than 6.70.
Same read-out and setting: the value for `NC(=O)c1cc(F)c(N[C@@H]2CCCC[C@@H]2N)nc1Nc1ccnc2c1ccn2CC1CC1` (relative stereo) [Example 4-40, 6-(cis-2-aminocyclohexylamino)-2-((1-(cyclopropylmethyl)-1H-pyrrolo[2,3-b]pyridin-4-yl)amino)-5-fluoronicotinamide] was no less than 6.70; that for `NC(=O)c1cc(F)c(N[C@@H]2CCCC[C@@H]2N)nc1Nc1cncc(-n2nccn2)c1` (relative stereo) [Example 4-42, 6-(cis-2-aminocyclohexylamino)-5-fluoro-2-((5-(2H-1,2,3-triazol-2-yl)pyridin-3-yl)amino)nicotinamide] was no less than 6.70; that for `NC(=O)Nc1cccc2cc(Nc3nc(N[C@@H]4CCCC[C@@H]4N)c(F)cc3C(N)=O)cnc12` (relative stereo) [Example 4-64, 2-((8-(aminocarbonyl)amino-quinolin-3-yl)amino)-6-(cis-2-amino-cyclohexylamino)-5-fluoronicotinamide] was no less than 6.70.
As for `NC(=O)c1cc(F)c(N[C@@H]2CCCC[C@@H]2N)nc1Nc1ccc2nsnc2c1` (relative stereo) [Example 6-34, 6-(cis-2-aminocyclohexylamino)-2-((benzo[c][1,2,5]thiadiazol-5-yl)amino)-5-fluoronicotinamide], the pIC50 is no less than 6.70.
`NC(=O)c1cc(F)c(N[C@@H]2CCCC[C@@H]2N)nc1Nc1ccc2ncsc2c1` (relative stereo) [Example 6-35, 6-(cis-2-aminocyclohexylamino)-2-((benzo[d]thiazol-6-yl)amino)-5-fluoronicotinamide]: the pIC50 is no less than 6.70.
Still for that read-out and setting: the value for `Cn1ncc2ccc(Nc3nc(N[C@@H]4CCCC[C@@H]4N)c(F)cc3C(N)=O)cc21` (relative stereo) [Example 6-40, 6-(cis-2-aminocyclohexylamino)-5-fluoro-2-((1-methyl-1H-indazol-6-yl)amino)nicotinamide] was no less than 6.70; that for `Cc1nc2ccc(Nc3nc(N[C@@H]4CCCC[C@@H]4N)c(F)cc3C(N)=O)cc2o1` (relative stereo) [Example 6-43, 6-(cis-2-aminocyclohexylamino)-5-fluoro-2-((2-methylbenzo[d]oxazol-6-yl)amino)nicotinamide] was no less than 6.70; that for `Cc1nc2cc(Nc3nc(N[C@@H]4CCCC[C@@H]4N)c(F)cc3C(N)=O)ccc2o1` (relative stereo) [Example 6-46, 6-(cis-2-aminocyclohexylamino)-5-fluoro-2-((2-methylbenzo[d]oxazol-5-yl)amino)nicotinamide] was no less than 6.70.
With `Cn1cnc2cc(Nc3nc(N[C@@H]4CCCC[C@@H]4N)c(F)cc3C(N)=O)ccc21` (relative stereo) [Example 6-65, 6-(cis-2-aminocyclohexylamino)-5-fluoro-2-((1-methyl-1H-benzo[d]imidazol-5-yl)amino)nicotinamide], the pIC50 is no less than 6.70.
On the same count and under the same terms, the value for `Cc1ccc2cc(Nc3nc(N[C@@H]4CCCC[C@@H]4N)c(F)cc3C(N)=O)ccc2n1` (relative stereo) [Example 6-70, 6-(cis-2-aminocyclohexylamino)-5-fluoro-2-((2-methylquinolin-6-yl)amino)nicotinamide] was no less than 6.70; that for `NC(=O)c1cc(F)c(N[C@@H]2CCCC[C@@H]2N)nc1Nc1ccc2cccnc2c1` (relative stereo) [Example 6-72, 6-(cis-2-aminocyclohexylamino)-5-fluoro-2-(quinolin-7-ylamino)nicotinamide] was no less than 6.70.
The same measure, in the same setting: the value for `Cn1ncc2c(Nc3nc(N[C@@H]4CCCC[C@@H]4N)c(F)cc3C(N)=O)cccc21` (relative stereo) [Example 6-75, 6-(cis-2-aminocyclohexylamino)-5-fluoro-2-((1-methyl-1H-indazol-4-yl)amino)nicotinamide] was no less than 6.70; that for `Cc1cnc2cc(Nc3nc(N[C@@H]4CCCC[C@@H]4N)c(F)cc3C(N)=O)ccc2n1` (relative stereo) [Example 6-76, 6-(cis-2-aminocyclohexylamino)-5-fluoro-2-((2-methylquinoxalin-6-yl)amino)nicotinamide] was no less than 6.70; that for `NC(=O)c1cc(F)c(N[C@@H]2CCCC[C@@H]2N)nc1Nc1ccc2c(cnn2CCN2CCCC2)c1` (relative stereo) [Example 6-82, 6-(cis-2-aminocyclohexylamino)-5-fluoro-2-((1-(2-(pyrrolidin-1-yl)ethyl)-1H-indazol-5-yl)amino)nicotinamide] was no less than 6.70.
Same read-out and setting: the value for `NC(=O)c1cc(F)c(N[C@@H]2CCCC[C@@H]2N)nc1Nc1ccc2nn(CCN3CCCC3)cc2c1` (relative stereo) [Example 6-83, 6-(cis-2-aminocyclohexylamino)-5-fluoro-2-((2-(2-(pyrrolidin-1-yl)ethyl)-2H-indazol-5-yl)amino)nicotinamide] was no less than 6.70.
In the case of `NC(=O)c1cc(F)c(N[C@@H]2CCCC[C@@H]2N)nc1Nc1ccc2[nH]ncc2c1` (relative stereo) [Example 6-87, 6-(cis-2-aminocyclohexylamino)-5-fluoro-2-((1H-indazol-5-yl)amino)nicotinamide], the pIC50 is no less than 6.70.
For `NC(=O)c1cc(F)c(N[C@@H]2CCCC[C@@H]2N)nc1Nc1ccc2ncccc2c1` (relative stereo) [Example 8-6, 6-(cis-2-aminocyclohexylamino)-5-fluoro-2-(quinolin-6-ylamino)-nicotinamide], the pIC50 is no less than 6.70.
On the same count and under the same terms, the value for `NC(=O)c1cc(F)c(N[C@@H]2CCCC[C@@H]2N)nc1Nc1cccc(Cl)c1` (relative stereo) [Example 8-8, 6-(cis-2-aminocyclohexylamino)-2-((3-chlorophenyl)amino)-5-fluoro-nicotinamide] was no less than 6.70; that for `Cc1cncc(Nc2nc(N[C@@H]3CCCC[C@@H]3N)c(Br)cc2C(N)=O)c1` (relative stereo) [Example 35-7, 6-(cis-2-aminocyclohexylamino)-5-bromo-2-((5-methylpyridin-3-yl)amino)nicotinamide] was no less than 6.70.
Still for that read-out and setting: the value for `NCCNc1nc(Nc2ccc3ncsc3c2)c(C(N)=O)cc1F` [Example 6-44, 6-(2-aminoethylamino)-2-((benzo[d]thiazol-6-yl)amino)-5-fluoro-nicotinamide] was no less than 6.70.

The same test, now with this note: Homo sapiens, THP-1, 7 h, read-out: TNFα generation inhibitory activity (IC50).
Take `NCCNc1nc(Nc2cnc3ccccc3c2)c(C(N)=O)cc1F` [Example 8-11, 6-(2-aminoethylamino)-5-fluoro-2-(quinolin-3-ylamino)nicotinamide]: the pIC50 was no less than 6.70.

Still in this test, the particulars now being: Homo sapiens, THP-1, THP-1 cells; Table 22; read-out: IC50 in TNFα generation assay.
With `Cc1nc2ccc(Nc3nc(N[C@@H]4CCCC[C@@H]4N)c(F)cc3C(N)=O)cc2o1` (relative stereo) [Example 006-043, 6-(cis-2-aminocyclohexylamino)-5-fluoro-2-((2-methylbenzo[d]oxazol-6-yl)amino)nicotinamide], the pIC50 was 6.70 to 6.89.
Still for that read-out and setting: the value for `NC(=O)c1cc(F)c(N[C@@H]2CCCC[C@@H]2N)nc1Nc1ccnc2c1ccn2CCN1CCCC1` [Example 004-023] was 6.89 to 7.19; that for `CC(C)C[C@H](CN)Nc1nc(Nc2ccc3ncccc3c2)c(C(N)=O)cc1F` [Example 006-117, (R)-6-((1-amino-4-methylpentan-2-yl)amino)-5-fluoro-2-((quinolin-6-yl)amino)nicotinamide] was greater than 7.19.
